# In patent US9327225B2, “Air cleaning filter and method for manufacturing the same” (LG Electronics Inc., priority 2012, dated 2016):
# Tests used:
# [1] = test system: E. coli; experiment: Shaking flask method, materials in maintenance medium; format: cell-based, Escherichia coli; details: 35° C., concentration of each material (wt %)
# Procedure: 3. Experiment Using Shaking Flask Method
# A maintenance medium produced with 1% of nutrient broth and 0.5% of NaCl and inoculated with about 10^5 cfu/ml of E. coli was prepared. Materials of PVPI, ginseng extract, bronopol, PA and NS were introduced to the medium, respectively, and reacted at 35° C., and the antibiotic effect was examined using a pour plate method after 6 hours and 24 hours had been passed.
# The antibiotic effect in the Table 3 was calculated using the following equation.
# Me: Cell number of maintenance medium to which each material is added
# Mc: Cell number of maintenance medium to which each material is not added
# [2] = test system: staphylococcus aureus (S. aureus); experiment: Measurement of minimal inhibitory concentration (MIC), turbidity; format: cell-based; details: for minimal inhibitory concentration, S. aureus: Table 1, 35° C., 14-16 hours; for S. aureus MIC value: Table 2
# Excerpt: (§1) 1. Measurement of Minimal Inhibitory Concentration (MIC)
# (§2) Polyvinylpyrrolidone iodine (hereinafter, abbreviated as “PVPI”), phthalaldehyde (hereinafter, abbreviated as “PA”), potassium disulphite (hereinafter, abbreviated as “PD”) bronopol, norspermidine (hereinafter, abbreviated as “NS), and the ginseng extract were sequentially diluted, respectively, and prepared with various concentrations to prepare MIC measurement specimens. About 10^4-5 cfu/ml of escherichia coli (E. coli) and about 10^4˜5 cfu/ml of staphylococcus aureus (S. aureus) were added to the MIC measurement specimens, respectively. The specimens were cultured at 35° C. for 14-16 hours and then the turbidity was examined, respectively.
# (§3) As a comparative example, specimens to which the E. coli and the S. aureus were added to distilled water, respectively, were cultured at the same time, and the minimal inhibitory concentration of the specimens was measured with reference to specimens subsequent to the culture and the turbidity of the comparative example subsequent to the culture.
# [3] = test system: escherichia coli (E. coli); experiment: as above; format: cell-based; details: for minimal inhibitory concentration, E. coli: Table 1, 35° C., 14-16 hours; for E. coli MIC value: Table 2; for MIC value of E. coli (wt %): in Table 3
# Excerpt: as §1, §2, §3
# [4] = test system: E. coli; experiment: Paper disc experiment (clear zone); format: cell-based, Escherichia coli; details: 24 hours, 35° C.
# Procedure: (§4) 10^5 cfu/ml of E. coli and S. aureus were sub-cultured in a Mueller Hinton agar, respectively, and then smeared.
# (§5) PVPI, ginseng extract, bronopol, PA, NS and PD were introduced to the paper disc, respectively, and left and dried for 5 to 10 minutes. The dried paper disc was put on a culture medium smeared with the E. coli and S. aureus with a sufficient interval, and cultured for 24 hours in a 35° C. incubator and then the size of clear zone was examined and the result is summarized in the following Table 2.
# [5] = test system: S. aureus; experiment: Paper disc experiment (clear zone); format: cell-based, Staphylococcus aureus; details: 24 hours, 35° C.
# Procedure: as §4, §5
Molecule,Antibiotic effect after 6 hours [1],Antibiotic effect after 24 hours [1],"minimal inhibitory concentration, S. aureus [2]",S. aureus MIC value [2],"minimal inhibitory concentration, E. coli [3]",E. coli MIC value [3],MIC value of E. coli (wt %) [3],E. coli clear zone (mm) [4],S. aureus clear zone (mm) [5]
"O=[N+]([O-])C(Br)(CO)CO [Bronopol, bronopol, reference compound]",99.99%,100%,Less than 0.0009% weight %,0.156% weight %,Less than 0.0009% weight %,0.156% weight %,0.156% wt %,10 mm,10 mm
"NCCCNCCCN [NS, norspermidine]",99.99%,100%,0.078% weight %,0.078% weight %,0.312% weight %,0.312% weight %,0.312% wt %,14 mm,23 mm
"O=Cc1ccccc1C=O [PA, phthalaldehyde]",99.99%,100%,0.156% weight %,< 0.0009% weight %,0.156% weight %,< 0.0009% weight %,< 0.0009% wt %,10 mm,11 mm
"O=S([O-])OS(=O)[O-].[K+].[K+] [PD, potassium disulphite]",–,–,0.078% weight %,0.078% weight %,0.156% weight %,0.156% weight %,–,12 mm,32 mm
"Polyvinylpyrrolidone iodine [PVPI, reference compound]",99.99%,100%,1.875% weight %,1.875% weight %,1.875% weight %,1.875% weight %,1.875% wt %,12 mm,30 mm
